Laboratory results published in patent US5317015A, “Azacyclic bisphosphonates as anticholesterolemic agents” (Rhone-Poulenc Rorer Pharmaceuticals Inc., priority 1992, dated 1994).

System: 1,4-condensation between isopentenyl diphosphate and geranyl diphosphate
Assay: not given
Conditions: J. Am. Chem. Soc., 1987, 109, 5544; cited from earlier work

Row | Compound | inhibition of the 1,4-condensation (in words)
1 | C=C(C)CCCP(=O)(O)CP(=O)(O)O | competitive inhibitors

Molecular target: T1, squalene synthetase (Rattus norvegicus, UniProt Q02769)
T1 construct: The brown outer microsomal layer is carefully removed with a spatula and placed in a beaker on ice; from tissue; host or cells: liver microsomes of male Sprague-Dawley rats (105,000 g pellet, washed, not purified)
T1 sequence (Q02769 1-416): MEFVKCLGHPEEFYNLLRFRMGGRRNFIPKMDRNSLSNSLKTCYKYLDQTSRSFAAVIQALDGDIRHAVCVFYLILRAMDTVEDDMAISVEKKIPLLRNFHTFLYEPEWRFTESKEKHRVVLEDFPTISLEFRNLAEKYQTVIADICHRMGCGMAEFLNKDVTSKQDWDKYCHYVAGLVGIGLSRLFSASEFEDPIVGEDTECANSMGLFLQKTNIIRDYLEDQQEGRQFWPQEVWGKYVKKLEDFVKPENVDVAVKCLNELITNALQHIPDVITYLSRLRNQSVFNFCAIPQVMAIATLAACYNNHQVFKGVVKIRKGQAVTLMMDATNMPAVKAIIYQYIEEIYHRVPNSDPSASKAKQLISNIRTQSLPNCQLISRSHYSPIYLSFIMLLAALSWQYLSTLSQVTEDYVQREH
Assay: Squalene Synthetase Inhibition Assay (SQ SYN)
Type: biochemical, rat (Sprague-Dawley)
Conditions: rat liver microsomes, 10 μM 3H-FPP, 0.5 mM β-NADPH, pH 7.5, 10 min preincubation and 10 min incubation, 37° C.
Text: These tests involve such factors as the effect of the compounds of Formula I to inhibit squalene synthesis.
Squalene Synthetase Inhibition Assay
The squalene synthetase assay used is a modification of the procedures described by Popjak (1969) and Poulter et al. (1989):
Popjak, G. Enzymes of sterol biosynthesis in liver and intermediates of sterol biosynthesis. Meth. Enzymol. 15: 393-454, 1969.
Poulter, C. D., Capson, T. L., Thompson, M. D. and Bard R. S. Squalene synthetase. Inhibition by ammonium analogues of carbocationic intermediates in the conversion of presqualene diphosphate to squalene. J. Am. Chem. Soc. 111: 3734-3739, 1989.
I. Animal Source and Tissue Preparation
Four male Sprague-Dawley rats weighing 100-120 gms are fed a low cholesterol rodent diet (#5012) obtained from Purina Mills, Inc. in Richmond, Ind.; and housed under reverse-light. Water is given ad lib. Rats are lightly anesthetized with ether and then decapitated. Livers are removed and enzymes are separated by the method described below.
All Chemicals are "A.C.S." in purity or better unless noted;
AquaSol®-2 scintillation fluid (NEF-952) (Du Pont/NEN Research Products, Boston, Mass.);
Anhydrous MgCl2 (M-8266), β-NADPH tetrasodium salt, reduced form (N-1630), Bovine serum albumin (A-6003), Cholesterol (C-8503);
Squalene (S-3626), (Sigma Chemical Co., St. Louis, Mo.);
Bio-Rad protein assay dye concentrate (Bio-Rad Laboratories, Richmond, Calif.);
Denatured ethanol, DMSO, HCl (1N), KOH, methanol, NaOH (0.1N, 1N), petroleum ether (M-280 grade), potassium phosphate dibasic, 2-propanol (Fisher Scientific, Pittsburgh, Pa.);
Zero grade nitrogen gas mixture (certified analysis) (Woodland Oxygen & Supply Co., Philadelphia, Pa.).
[1-^3 H(N)]-FPP, triammonium salt (NET-1042), (Du Pont/NEN, Boston, Mass.);
Non-radiolabeled FPP is prepared in-house. The solid FPP is aliquoted and stored at -80° C. FPP is dissolved in 70% ethanol/30% 0.25M NH4 HCO3 at the concentration of 10 mM and the solution is aliquoted (200 μl each) and stored at -80° C.
III. Preparation of Assay Substances
Test solutions are prepared fresh in 100% DMSO or dH2 O. Subsequent dilutions are made in the same solvent. Compounds are tested initially at 1 or 10 μM (final concentrations).
Potassium phosphate (50 mM, 8.71 g/l) pH 7.5 stock buffer is prepared and stored at 4° C. until use. Anhydrous MgCl2 is added to the phosphate buffer on the day of assay for a final concentration of 10 mM (95 mg/100 ml). The buffer is flushed with N2 before use.
Non-radiolabeled FPP is diluted to 50 μM (100 μl 10 mM cold FPP+19.9 ml phosphate buffer). Then, 14 μl (20×10^6 dpm) of ^3 H-FPP (0.5 mCi/ml, 0.011 mg/ml) is added. 200 μl of this mixture is added per assay tube for a final reaction concentration of 10 μM FPP (~200,000 dpm/assay tube).
37.5 mg of β-NADPH is added to 9 ml assay buffer for a 5 mM concentration of β-NADPH. The mixture is vortexed and 100 μl of this solution is added to each tube for a final assay concentration of 0.5 mM β-NADPH.
75 gm of KOH is dissolved in 500 ml of denatured ethanol for a 15% solution and stored at 0° C. until use. 1 ml of this solution is added per tube to terminate the reaction.
IV. Experimental Procedure
Immediately following decapitation, livers are removed one at a time from four rats. The livers are combined and weighed in a tared beaker. Assay buffer is added equal to three times the liver weight. The liver is first homogenized with a blender for thirty seconds, and then by a motor driven teflon pestle at a speed of 2.5. During homogenization, the liver is kept on ice. When the liver is fully homogenized, the homogenate is centrifuged at 10,000 g for 30 min at 4° C. in 50 ml capacity centrifuge tubes. The mitochondrial pellet is discarded and the supernatant is filtered through a layer of gauze moistened with a little buffer. This supernatant is recentrifuged at 105,000 g for one hour at 0° C. in an ultracentrifuge in 25 ml capacity ultracentrifuge tubes. […]

Row | Compound | IC50 [nM]
2 | O=P(O)(O)C(O)(CCNC1CC2CCC1C2)P(=O)(O)O (centres unmarked) | 600
3 | O=P(O)(O)C(O)(CCNCC1CCCCCC1)P(=O)(O)O | 1460
4 | O=P(O)(O)C(O)(CCNC1CCN(Cc2ccccc2)CC1)P(=O)(O)O | 2300
5 | O=P(O)(O)C(O)(CCN1CC2CCC(CC2)C1)P(=O)(O)O | 16
6 | O=P(O)(O)C(O)(CCN1CCCCC1)P(=O)(O)O | 720
7 | CC1(C)CC2CC(C)(CN2CCC(O)(P(=O)(O)O)P(=O)(O)O)C1 (centres unmarked) | 5060

Now from value to compound:

Row | IC50 [nM] | Compound
8 | 60 | O=P(O)(O)C(O)(CCNC1CCc2ccccc21)P(=O)(O)O (centres unmarked)
9 | 440 | O=P(O)(O)C(O)(CCNC1C2CC3CC(C2)CC1C3)P(=O)(O)O (centres unmarked)
10 | 130 | O=P(O)(O)C(O)(CCNC1CCCc2ccccc21)P(=O)(O)O (centres unmarked)
11 | 370 | O=P(O)(O)C(O)(CCN1CCC(c2ccccc2)CC1)P(=O)(O)O
12 | 19 | O=P(O)(O)C(O)(CCN1CCCC2CCCCC21)P(=O)(O)O (centres unmarked)
13 | 130 | O=P(O)(O)C(O)(CCN1CCCCCC1)P(=O)(O)O
14 | 390 | O=P(O)(O)C(O)(CCN1CCC2(CCCCC2)CC1)P(=O)(O)O
